Measured values: ChEMBL document CHEMBL1129144, “Stereoselective synthesis and biological activity of cis azetidinones as cholesterol absorption inhibitors” (1996)

What was measured:
Assay type in all cases: functional
[1] = system: Cricetinae gen. sp.; test: Compound was tested for % inhibition of cholesterol in the cholesterol-fed hamster model after oral administration at a dose of 10 mg/kg/day.
[2] = system: Cricetinae gen. sp.; test: Compound was tested for cholesterol reduction in liver in the cholesterol-fed hamster model after oral administration.
[3] = system: Cricetinae gen. sp.; test: Compound was tested for cholesterol inhibition in the cholesterol-fed hamster model after oral administration.
[4] = system: Cricetinae gen. sp.; test: Compound was tested for % inhibition of cholesterol in the cholesterol-fed hamster model after oral administration at a dose of 100 mg/kg/day.
[5] = system: Cricetinae gen. sp.; test: Compound was tested for % inhibition of cholesterol in the cholesterol-fed hamster model after oral administration at a dose of 25 mg/kg/day.
[6] = system: Cricetinae gen. sp.; test: Compound was tested for % inhibition of cholesterol in the cholesterol-fed hamster model after oral administration at a dose of 3 mg/kg/day.

| SMILES | Reduction [1] [%] | ED50 [2] [mg/kg/day] | also measured |
| --- | --- | --- | --- |
| COc1ccc([C@H]2[C@@H]([C@@H](O)CCc3ccccc3)C(=O)N2c2ccccc2)cc1 | 22 | – | – |
| COc1ccc([C@@H]2[C@@H]([C@@H](O)CCc3ccccc3)C(=O)N2c2ccccc2)cc1 | – | 8.6 | – |
| COc1ccc([C@H]2[C@@H]([C@H](O)CCc3ccccc3)C(=O)N2c2ccccc2)cc1 | 0 | – | – |
| COc1ccc(C2N(c3ccc(OC)cc3)C(=O)[C@]23CC[C@H](c2ccccc2)CC3)cc1 (stereo partly drawn) | – | – | ED50 [3]: 3 mg/kg |
| COc1ccc([C@H]2[C@@H](CCCc3ccccc3)C(=O)N2c2ccccc2)cc1 | – | – | Reduction [4]: 0% |
| COc1ccc([C@@H]2[C@H]([C@H](O)CCc3ccccc3)C(=O)N2c2ccccc2)cc1 | – | 0.4 | – |
| COc1ccc([C@H]2[C@H]([C@@H](O)CCc3ccccc3)C(=O)N2c2ccccc2)cc1 | 0 | – | – |
| COc1ccc([C@@H]2[C@@H]([C@H](O)CCc3ccccc3)C(=O)N2c2ccccc2)cc1 | – | 1.2 | – |
| COc1ccc([C@H]2[C@H](CCCc3ccccc3)C(=O)N2c2ccccc2)cc1 | – | – | Reduction [5]: 0% |
| COc1ccc([C@@H]2[C@@H](CCCc3ccccc3)C(=O)N2c2ccccc2)cc1 | – | 0.54 | – |
| COc1ccc([C@@H]2[C@H]([C@@H](O)CCc3ccccc3)C(=O)N2c2ccccc2)cc1 | – | – | Reduction [6]: 0% |
| COc1ccc([C@@H]2[C@H](CCCc3ccccc3)C(=O)N2c2ccccc2)cc1 | – | 4 | – |
| COc1ccc([C@H]2[C@H]([C@H](O)CCc3ccccc3)C(=O)N2c2ccccc2)cc1 | 38 | – | – |
